# From US10117903B1, “Method for regulating cancer stem cell growth by inhibiting phosphorylation of 120th threonine residue of TSPYL5 protein, a composition containing the peptide sequence functioning to inhibit the phosphorylation and a use thereof” (Korea Atomic Energy Research Institute, priority 2016, dated 2018)
# Where a SMILES comes first, the peptide text is derived from it. The star is where a group is joined. Cbz = O=C(OCc1ccccc1)*
# What was measured:
# Assay type in all cases: cell-based
# TSPYL5 = assay: Ubiquitination assay of TSPYL5
# Experimental: H460 cells were transfected with pcDNA3.1/TSPYL5 (wild-type) and pcDNA3.1/TSPYL5-120A constructed in Example 1. 48 hours later, 10 μM MK2206 was treated to the cells for 1 hour and then the cells were recovered. A protease inhibitor was added to a cell lysis solution (2% SDS, 150 mM NaCl, 10 mM Tris-HCl, pH 8.0), followed by mixing. 100 μl of the solution was added to the cells. The cells were lysed by using a sonicator. Centrifugation was performed at 13000 rpm. The supernatant was obtained, which was diluted in a diluting solution (0.01% SDS, 1.1% Triton X-100, 1.2 mM EDTA, 16.7 mM Tris-HCl (pH8.1), 167 mM NaCl) at 1/10, followed by reaction at 4° C. for 30 minutes. TSPYL5 or ubiquitin specific antibody was added thereto, followed by reaction for overnight to induce protein binding. Protein A/G agarose beads were added thereto, followed by reaction for 4 hours. The protein was washed with washing buffer (10 mM Tris-HCl pH 8.0, 1 M NaCl, 1 mM EDTA, 1% NP40) twice. The protein was mixed with loading buffer and heated at 95° C. Samples were loaded, followed by reaction with TSPYL5 or ubiquitin specific antibody to confirm the protein expression.
# A549 cells [1] = assay: Western blotting after AKT/PI3K inhibitor treatment; conditions: 10 μM MK2206 or 50 μM LY294002, Western blotting
# Experimental: (§1) Western blotting was performed as follows in order to investigate the protein expression. Lysis buffer (0.05 M Tris-Cl (pH7.4), 0.15 M NaCl, 0.25% deoxycholic acid, 1% NP-40, 1 mM EDTA, and protease inhibitor cocktail) was added to the target cells, followed by reaction at 4° C. for 30 minutes. The cell lysate was centrifuged at 4° C. to obtain the supernatant. The supernatant was quantified. 40 μg of each protein was loaded on SDS-gel, followed by electrophoresis. The proteins were transferred onto nitrocellulose membrane, followed by blocking with BSA containing buffer at room temperature for 30 minutes. Then, the membrane was reacted with the primary antibody PTEN (1:1000), TSPYL5 (Santa Cruz), ALDH1A1, ALDH1A3 (Abcam), CD44, and β-actin, or GAPDH (CST) for 4 hours. Then, the membrane was reacted with the secondary antibody (1:10000). The nitrocellulose membrane was washed 5 times with PBS, followed by sensitization on the film with the detection solution.
# (§2) 1×10^5 A549 cells placed on the culture dish with the cover glass were treated with 10 μM of MK2206 (AKT inhibitor) and 50 μM of LY294002 (PI3K inhibitor) for 4 hours. The cells were fixed in 4% paraformaldehyde solution for 20 minutes. Then, the cover glass was washed with PBS three times and then treated with 0.5% TritonX-100 solution for 5 minutes. The cover glass was washed again with PBS three times. The cells were treated with 1% BSA for 2 hours, followed by reaction with the primary antibody TSPYL5 (Santa Cruz) diluted in PBS buffer at the ratio of 1:100 for 2 hours. Then, the cells were reacted with the secondary antibody Rabbit (Cell Signaling Technology) diluted at the ratio of 1:1000 for 1 hour. The cells were washed with PBS three times, and then the nucleus was stained with DAPI solution for 5 minutes. The location and the amount of TSPYL5 expression were investigated under fluorescent microscope.
# Western blotting was also performed by the same manner as described in Experimental Example <1-1>. As a result, when AKT or PI3K inhibitor was treated to the cells, the expressions of TSPYL5, phosphorylated AKT, CD44, ALDH1A3, and ALDH1A1 were reduced.
# TSPYL5 protein [2] = assay: Location of TSPYL5 expression in cells after AKT/PI3K inhibitor (fluorescent microscope); conditions: A549 cells, 10 μM MK2206 or 50 μM LY294002, 4 hours
# Experimental: as §2
# TSPYL5 protein [3] = assay: TSPYL5 expression after inhibition of AKT phosphorylation (PCR and Western blotting); conditions: A549 cells
# Experimental: In addition, 20 μM of MK2206 (Santa Cruze Biotechnology), the AKT (serine/threonine protein kinase) inhibitor, was treated thereto, followed by investigation of the inhibition of AKT phosphorylation and the inhibition of TSPYL5 expression.
# as §1, with “solution. […]” for “solution.”
# A549 cells [4] = assay: Sphere formation after peptide treatment; conditions: 10 μM of each peptide, 10 days, compared with the control
# Experimental: To investigate the capacity of TSPYL5 peptide to inhibit the sphere formation, 2×10^4 A549 cells (non-small cell lung cancer cells) were suspended in DMEM (Invitrogen) containing stem cell-permissive medium. 20 ng/ml of EGF, 20 ng/ml of basic fibroblast growth factor (bFGF) and B27 serum-free supplement (Invitrogen) were mixed with DMEM-F12 (Invitrogen). The cells were distributed in the 96 well plate pre-coated with 0.8% agar (one cell/well), to which 10 μM of each peptide was treated, followed by culture. The cells were cultured in a 37° C. 5% CO2 incubator for 10 days. Then, the sphere formation was observed.
# A549 cells [5] = assay: Transwell migration assay (cancer cell metastasis) after peptide treatment; conditions: 10 μM peptide, 40 hours, compared with the control
# Experimental: (§3) The mixture was loaded in the transwell upper chamber. In the lower chamber, 500 μl of RPMI1640 supplemented with 7% FBS was loaded. Then, the two chambers were combined together. The cells were cultured in a 37° C. 5% CO2 incubator for 40 hours. The upper chamber membrane was wiped with cotton swabs, stained with crystal violet, and then observed under microscope.
# (§4) For invasion assay, the transwell upper chamber was coated with 100 μl of matrigel (20 μg/well; BD Biosciences). Then, the rest of the process was the same as described in the migration assay above. The cells stained with crystal violet were eluted with 500 μl of 10% acetic acid. OD600 was measured to calculate the relative migration/invasion value of A549 cells.
# A549 cells [6] = assay: Cancer cell proliferation (colony-forming ability) after peptide treatment; conditions: 10 μM of each peptide, 8 days, crystal violet staining, compared with DMSO control
# Experimental: Particularly, 1×10^3 A549 cells were distributed on a 35 mm plate, which were treated with 10 μM of each peptide. As for the control, DMSO was treated thereto, followed by culture in a 37° C. 5% CO2 incubator for 8 days. The cells were stained with 0.5% crystal violet for 10 minutes. The cells were washed with PBS several times and then cell proliferation was investigated.
# A549 cells [7] = assay: Matrigel transwell invasion assay after peptide treatment; conditions: 10 μM peptide, matrigel-coated transwell, compared with the control
# Experimental: as §3, §4
# TSPYL5 protein [8] = assay: TSPYL5 nuclear expression after SUMOylation inhibition; conditions: A549 cells, 3 uM, 2 hours
# Experimental: However, in the cells expressing pcDNA3.1/TSPYL5-120A, the SUMOylation was not observed. To confirm the SUMOylation inhibition, the SUMO1 inhibitor ginkgolic acid (Abcam) was treated to A549 cells at the concentration of 3 uM for 2 hours.
# [9] = H460 cells transfected with pcDNA3.1/TSPYL5, 10 μM MK2206, 1 hour
compound,measurement,setting,value
CC(C)C[C@@H](C=O)NC(=O)[C@H](CC(C)C)NC(=O)[C@H](CC(C)C)NC(=O)OCc1ccccc1 [MG132] (Cbz-Leu-Leu-Leu-aldehyde),protein degradation of TSPYL5,"TSPYL5; H460 cells, when the 120th amino acid of TSPYL5 was phosphorylated",suppressed
NC1(c2ccc(-c3nc4ccn5c(=O)[nH]nc5c4cc3-c3ccccc3)cc2)CCC1 [MK2206],expression of ALDH1A1,A549 cells [1],reduced
same,expression of ALDH1A3,A549 cells [1],reduced
same,expression of CD44,A549 cells [1],reduced
same,expression of TSPYL5,A549 cells [1],reduced
same,expression of phosphorylated AKT,A549 cells [1],reduced
same,TSPYL5 expression in the nucleus,TSPYL5 protein [2],not expressed in the nucleus
same,phosphorylation of TSPYL5,TSPYL5; [9],inhibited
same,ubiquitination of TSPYL5,TSPYL5; [9],increased
same,AKT phosphorylation,TSPYL5 protein [3]; 20 μM MK2206,suppressed
same,expression of TSPYL5 protein,"TSPYL5 protein [3]; 20 μM MK2206, time course",inhibited in proportion to the suppression time of AKT phosphorylation
SERSAADDVFVGTAG (TS120D) [phosphorylation analogue mutant peptide in which the 120th T was substituted with D],sphere formation,A549 cells [4],suppressed
same,sphere formation,A549 cells [4]; listed as SEQ. ID. NO: 44,inhibited
same,metastasis (migration),A549 cells [5],reduced
same,cell proliferation,A549 cells [6],significantly inhibited
same,cell proliferation,A549 cells [6]; listed as SEQ. ID. NO: 44,reduced
same,invasion,A549 cells [7],reduced
SERSAADTVFVGTAG (TS120T) [15 mer peptide containing the 120th residue threonine of TSPYL5],sphere formation,A549 cells [4],suppressed
same,sphere formation,A549 cells [4]; listed as SEQ. ID. NO: 43,inhibited
same,metastasis (migration),A549 cells [5],reduced
same,cell proliferation,A549 cells [6],significantly inhibited
same,cell proliferation,A549 cells [6]; listed as SEQ. ID. NO: 43,reduced
same,invasion,A549 cells [7],reduced
SERSSADAVFVGTAG (SERSAADAVFVGTAG; TS120A) [mutant peptide in which the 120th T was substituted with A],sphere formation,A549 cells [4],not much changed
same,metastasis (migration),A549 cells [5],did not make any big difference with the control
same,cell proliferation,A549 cells [6],not changed
same,invasion,A549 cells [7],did not make any big difference with the control
ginkgolic acid,TSPYL5 protein expression in the nucleus,TSPYL5 protein [8],not expressed in the nucleus
